In patent US9630958B2, “Triazine compounds” (Sphaera Pharma Pte. Ltd., priority 2012, dated 2017):

Experiments:
[1] = target: T1, PI3 Kinase alpha (p110 alpha/p85 alpha) (Homo sapiens, UniProt P42336); assay: PI3K TR-FRET assay (Transcreener ADP2); type: biochemical; settings: for IC50: PI3K alpha, 1 μM ATP, 50 μM PIP2
T1 construct: purchased Invitrogen
Method in brief: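 p110α/p85α with diC8 PIP2 (50 μM) and 1 μM ATP in 50 mM HEPES pH 7.4, MgCl2, CHAPS, DTT, EGTA; 1 h at room temperature. ADP detected by Transcreener ADP2 TR-FRET (665/615 nm ratio), converted to product via ADP-ATP standard curve; IC50 from four-parameter fit of % inhibition.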

Recombinant mTOR (FRAP1) = target: T2, Recombinant mTOR (FRAP1) (Homo sapiens, UniProt P42345); assay: mTOR in vitro kinase assay (TR-FRET, phosphorylation of GFP-4E-BP1); type: biochemical; settings: for IC50: 8 μM ATP, 400 nM GFP-4E-BP1; for inhibition at 1 µM: 1 uM compound, read-out: mTOR % Inhib@1 uM
T2 construct: purchased Invitrogen
T2 sequence (P42345 1360-2549 limits assumed): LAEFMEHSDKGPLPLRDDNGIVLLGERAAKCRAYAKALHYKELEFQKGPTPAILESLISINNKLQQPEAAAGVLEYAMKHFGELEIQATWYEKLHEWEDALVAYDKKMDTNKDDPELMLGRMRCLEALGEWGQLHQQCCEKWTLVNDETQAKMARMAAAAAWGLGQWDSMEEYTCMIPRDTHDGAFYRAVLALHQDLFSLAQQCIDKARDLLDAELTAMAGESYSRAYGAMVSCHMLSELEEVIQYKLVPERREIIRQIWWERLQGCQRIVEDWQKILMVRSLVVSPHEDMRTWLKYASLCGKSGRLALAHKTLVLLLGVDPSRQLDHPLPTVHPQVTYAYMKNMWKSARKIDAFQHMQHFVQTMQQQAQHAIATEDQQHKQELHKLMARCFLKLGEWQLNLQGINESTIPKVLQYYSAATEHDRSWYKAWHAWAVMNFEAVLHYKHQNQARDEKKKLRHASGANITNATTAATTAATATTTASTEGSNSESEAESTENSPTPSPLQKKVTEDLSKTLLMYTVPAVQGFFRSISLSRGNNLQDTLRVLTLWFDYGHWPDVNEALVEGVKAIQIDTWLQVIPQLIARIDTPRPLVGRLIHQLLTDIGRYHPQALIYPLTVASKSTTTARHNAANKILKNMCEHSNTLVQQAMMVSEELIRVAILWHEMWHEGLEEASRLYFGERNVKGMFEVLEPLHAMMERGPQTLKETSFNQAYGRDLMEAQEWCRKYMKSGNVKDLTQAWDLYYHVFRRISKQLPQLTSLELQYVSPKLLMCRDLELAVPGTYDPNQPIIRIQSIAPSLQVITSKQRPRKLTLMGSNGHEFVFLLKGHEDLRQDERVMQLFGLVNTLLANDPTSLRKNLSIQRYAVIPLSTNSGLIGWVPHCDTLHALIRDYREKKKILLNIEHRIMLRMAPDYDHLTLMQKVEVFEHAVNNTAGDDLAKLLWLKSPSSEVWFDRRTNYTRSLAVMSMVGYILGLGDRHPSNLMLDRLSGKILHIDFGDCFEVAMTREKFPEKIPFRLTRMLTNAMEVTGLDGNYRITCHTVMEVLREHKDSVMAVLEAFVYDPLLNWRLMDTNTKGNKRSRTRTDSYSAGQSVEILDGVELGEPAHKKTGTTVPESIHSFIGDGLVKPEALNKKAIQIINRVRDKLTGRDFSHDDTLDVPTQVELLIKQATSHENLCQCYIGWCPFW
Method in brief: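 Recombinant human mTOR with GFP-4E-BP1 substrate at 400 nM and 8 μM ATP, 1 h at room temperature, then quenched with 10 mM EDTA plus 2 nM Tb-anti-p4E-BP1 (pThr46) for 1 h. TR-FRET 520/486 nm ratio fitted against inhibitor concentration by four-parameter sigmoidal regression.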

T1 sequence (P42336 whole entry): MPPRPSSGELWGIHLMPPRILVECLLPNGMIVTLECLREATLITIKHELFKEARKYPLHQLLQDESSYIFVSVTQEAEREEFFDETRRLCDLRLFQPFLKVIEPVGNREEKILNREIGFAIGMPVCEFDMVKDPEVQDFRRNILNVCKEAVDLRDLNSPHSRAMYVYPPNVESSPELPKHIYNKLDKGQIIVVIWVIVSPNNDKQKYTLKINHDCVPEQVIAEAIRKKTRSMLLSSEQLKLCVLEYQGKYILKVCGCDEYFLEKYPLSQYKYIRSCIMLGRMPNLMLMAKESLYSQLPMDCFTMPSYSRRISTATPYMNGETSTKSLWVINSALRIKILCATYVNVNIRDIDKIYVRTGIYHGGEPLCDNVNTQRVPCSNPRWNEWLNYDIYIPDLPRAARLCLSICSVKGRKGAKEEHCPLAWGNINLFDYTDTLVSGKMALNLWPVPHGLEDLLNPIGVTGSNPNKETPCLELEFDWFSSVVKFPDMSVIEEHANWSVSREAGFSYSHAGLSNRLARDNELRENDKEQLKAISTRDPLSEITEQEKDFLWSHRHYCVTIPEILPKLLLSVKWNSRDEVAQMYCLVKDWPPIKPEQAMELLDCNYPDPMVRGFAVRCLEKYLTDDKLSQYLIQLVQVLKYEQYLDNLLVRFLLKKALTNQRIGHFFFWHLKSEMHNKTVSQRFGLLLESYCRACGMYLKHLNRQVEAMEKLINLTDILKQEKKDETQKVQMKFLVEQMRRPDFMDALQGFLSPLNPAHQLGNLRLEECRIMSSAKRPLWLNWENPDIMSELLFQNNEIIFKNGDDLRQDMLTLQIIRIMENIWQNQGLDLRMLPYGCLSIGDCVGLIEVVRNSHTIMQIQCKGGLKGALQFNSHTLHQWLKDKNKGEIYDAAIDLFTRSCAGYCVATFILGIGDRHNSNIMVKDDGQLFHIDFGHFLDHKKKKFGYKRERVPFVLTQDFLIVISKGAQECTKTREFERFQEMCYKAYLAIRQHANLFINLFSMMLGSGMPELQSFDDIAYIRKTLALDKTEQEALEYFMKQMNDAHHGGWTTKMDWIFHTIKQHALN
T1 sequence (P27986 whole entry partner): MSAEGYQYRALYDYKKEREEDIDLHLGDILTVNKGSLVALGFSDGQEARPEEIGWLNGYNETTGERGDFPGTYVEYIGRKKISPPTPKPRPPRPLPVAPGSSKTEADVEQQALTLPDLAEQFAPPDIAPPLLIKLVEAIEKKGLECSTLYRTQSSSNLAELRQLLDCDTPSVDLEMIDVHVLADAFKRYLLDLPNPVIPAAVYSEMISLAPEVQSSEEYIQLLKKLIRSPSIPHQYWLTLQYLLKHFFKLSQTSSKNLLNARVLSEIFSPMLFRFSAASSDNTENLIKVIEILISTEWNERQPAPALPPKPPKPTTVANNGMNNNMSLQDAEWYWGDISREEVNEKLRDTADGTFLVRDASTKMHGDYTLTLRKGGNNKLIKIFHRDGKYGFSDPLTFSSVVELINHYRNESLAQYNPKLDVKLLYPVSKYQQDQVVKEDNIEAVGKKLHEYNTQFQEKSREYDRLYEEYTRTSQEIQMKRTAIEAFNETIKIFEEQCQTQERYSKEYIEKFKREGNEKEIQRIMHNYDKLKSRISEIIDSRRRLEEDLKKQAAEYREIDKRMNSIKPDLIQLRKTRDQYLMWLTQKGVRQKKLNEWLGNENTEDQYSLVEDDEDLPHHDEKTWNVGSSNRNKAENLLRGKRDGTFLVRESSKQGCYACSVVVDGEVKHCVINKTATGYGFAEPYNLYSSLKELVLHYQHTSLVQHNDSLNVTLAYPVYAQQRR

Row | SMILES | IC50 [1] [µM] | IC50 (Recombinant mTOR (FRAP1)) [µM] | inhibition at 1 µM (Recombinant mTOR (FRAP1)) [%] | inhibition at 1 µM ([1]; 1 uM compound, read-out: PI3K % Inhib@1 uM) [%]
1 | CN(C)C(=O)c1ccc(Oc2nc(-c3cnc4[nH]ccc4c3)nc(N3CCOCC3)n2)c(F)c1 [Compound 10158, 4-(4-morpholino-6-(1H-pyrrolo[2,3-b]pyridin-5-yl)-1,3,5-triazin-2-yloxy)-3-fluoro-N,N-dimethylbenzamide] | < 1 | < 1 | – | –
2 | CC1OCCN(c2nc(Oc3ccc(C(=O)N(C)C)cc3F)nc(-c3cnc(N)s3)n2)C1C (centres unmarked) [Compound 10159, 4-(4-(2-aminothiazol-5-yl)-6-(2,3-dimethylmorpholino)-1,3,5-triazin-2-yloxy)-3-fluoro-N,N-dimethylbenzamide] | < 1 | < 1 | – | –
3 | C[C@@H]1CO[C@@H](C)CN1c1nc(Oc2ccc(C(=O)N(C)C)cc2F)nc(-c2ccc3[nH]ncc3c2)n1 [Compound 10161, 4-(4-(1H-indazol-5-yl)-6-((2S,5R)-2,5-dimethylmorpholino)-1,3,5-triazin-2-yloxy)-3-fluoro-N,N-dimethylbenzamide] | > 10 | < 1 | – | –
4 | C[C@@H]1CN(c2nc(Oc3ccc(C(=O)N(C)C)cc3F)nc(-c3ccc4[nH]ncc4c3)n2)[C@H](C)CO1 [Compound 10162, 4-(4-(1H-indazol-5-yl)-6-((2R,5R)-2,5-dimethylmorpholino)-1,3,5-triazin-2-yloxy)-3-fluoro-N,N-dimethylbenzamide] | > 10 | > 1 | – | –
5 | CN(C)C(=O)c1ccc(Oc2nc(-c3cccc4[nH]ncc34)nc(N3[C@@H]4CC[C@H]3COC4)n2)cc1 [Compound 10174, 4-((4-((1R,5S)-3-oxa-8-azabicyclo[3.2.1]octan-8-yl)-6-(1H-indazol-4-yl)-1,3,5-triazin-2-yl)oxy)-N,N-dimethylbenzamide] | > 1 | – | < 50 | –
6 | Nc1ccc(-c2nc(CO)nc(N3CCOCC3)n2)cn1 [Compound 10176, (4-(6-aminopyridin-3-yl)-6-morpholino-1,3,5-triazin-2-yl)methanol] | < 1 | – | < 50 | –
7 | CN(C)C(=O)c1ccc(Oc2nc(-c3ccc(N)nc3)nc(N3CCCOCC3)n2)cc1 [Compound 10178, 4-((4-(6-aminopyridin-3-yl)-6-(1,4-oxazepan-4-yl)-1,3,5-triazin-2-yl)oxy)-N,N-dimethylbenzamide] | < 1 | – | < 50 | –
8 | CN(C)C(=O)Cc1ccc(Oc2nc(-c3ccc(N)nc3)nc(N3CCOCC3)n2)cc1 [Compound 10180, 2-(4-((4-(6-aminopyridin-3-yl)-6-morpholino-1,3,5-triazin-2-yl)oxy)phenyl)-N,N-dimethylacetamide] | < 1 | < 1 | > 50 | –
9 | Cc1cc(Oc2nc(-c3ccc(N)nc3)nc(N3CCOCC3)n2)ccc1C(=O)N(C)C [Compound 10181, 4-((4-(6-aminopyridin-3-yl)-6-morpholino-1,3,5-triazin-2-yl)oxy)-N,N,2-trimethylbenzamide] | < 1 | < 1 | > 50 | –
10 | Nc1ccc(-c2nc(Oc3ccc4c(c3)CCC(=O)N4)nc(N3CCOCC3)n2)cn1 [Compound 10182, 6-((4-(6-aminopyridin-3-yl)-6-morpholino-1,3,5-triazin-2-yl)oxy)-3,4-dihydroquinolin-2(1H)-one] | < 1 | > 1 | > 50 | –
11 | CS(=O)(=O)N1CCC(COc2nc(-c3ccc(N)nc3)nc(N3CCOCC3)n2)CC1 [Compound 10185, 5-(4-((1-(methylsulfonyl)piperidin-4-yl)methoxy)-6-morpholino-1,3,5-triazin-2-yl)pyridin-2-amine] | < 1 | – | < 50 | –
12 | CN(C)C(=O)NC1CCN(c2nc(-c3ccc(N)nc3)nc(N3CCOCC3)n2)CC1 [Compound 10188, 3-(1-(4-(6-aminopyridin-3-yl)-6-morpholino-1,3,5-triazin-2-yl)piperidin-4-yl)-1,1-dimethylurea] | > 1 | – | < 50 | –
13 | CN(C)C(=O)Cc1ccc(Oc2nc(-c3cnc(N)nc3)nc(N3CCOCC3)n2)cc1 [Compound 10189, 2-(4-((4-(2-aminopyrimidin-5-yl)-6-morpholino-1,3,5-triazin-2-yl)oxy)phenyl)-N,N-dimethylacetamide] | < 1 | – | < 50 | –
14 | CN(C)C(=O)c1ccc(Oc2nc(Nc3nccs3)nc(N3CCOCC3)n2)cc1 [Compound 10191, N,N-dimethyl-4-((4-morpholino-6-(thiazol-2-ylamino)-1,3,5-triazin-2-yl)oxy)benzamide] | > 1 | – | < 50 | –
15 | CN(C)C(=O)c1ccc(Oc2nc(-c3cnc(N)s3)nc(N3CCCOCC3)n2)cc1 [Compound 10192, 4-((4-(2-aminothiazol-5-yl)-6-(1,4-oxazepan-4-yl)-1,3,5-triazin-2-yl)oxy)-N,N-dimethylbenzamide] | > 1 | > 1 | < 50 | –
16 | CNC(=O)c1ccc(Oc2nc(-c3cnc(N)s3)nc(N3CCOCC3)n2)cc1 [Compound 10193, 4-((4-(2-aminothiazol-5-yl)-6-morpholino-1,3,5-triazin-2-yl)oxy)-N-methylbenzamide] | < 1 | – | < 50 | –
17 | CS(=O)(=O)N1CCC(COc2nc(-c3cnc(N)s3)nc(N3CCOCC3)n2)CC1 [Compound 10194, 5-(4-((1-(methylsulfonyl)piperidin-4-yl)methoxy)-6-morpholino-1,3,5-triazin-2-yl)thiazol-2-amine] | < 1 | – | < 50 | –
18 | CN(C)C(=O)c1cccc(Oc2nc(-c3cnc(N)s3)nc(N3CCOCC3)n2)c1 [Compound 10195, 3-((4-(2-aminothiazol-5-yl)-6-morpholino-1,3,5-triazin-2-yl)oxy)-N,N-dimethylbenzamide] | < 1 | – | < 50 | –
19 | CN(C)C(=O)c1ccc(Nc2nc(-c3cnc(N)s3)nc(N3CCOCC3)n2)cc1 [Compound 10196, 4-((4-(2-aminothiazol-5-yl)-6-morpholino-1,3,5-triazin-2-yl)amino)-N,N-dimethylbenzamide] | < 1 | – | < 50 | –
20 | CS(=O)(=O)N1CCC(COc2nc(-c3cnc(N)s3)nc(N3CCOCC3)n2)C1 (centres unmarked) [Compound 10197, 5-(4-((1-(methylsulfonyl)pyrrolidin-3-yl)methoxy)-6-morpholino-1,3,5-triazin-2-yl)thiazol-2-amine] | < 1 | – | < 50 | –
21 | Cc1nc(N)sc1-c1nc(Oc2ccc(C(=O)N(C)C)cc2)nc(N2CCOCC2)n1 [Compound 10199, 4-((4-(2-amino-4-methylthiazol-5-yl)-6-morpholino-1,3,5-triazin-2-yl)oxy)-N,N-dimethylbenzamide] | < 1 | – | < 50 | –
22 | CN(C)C(=O)c1cccc(Nc2nc(-c3cnc(N)s3)nc(N3CCOCC3)n2)c1 [Compound 10200, 3-((4-(2-aminothiazol-5-yl)-6-morpholino-1,3,5-triazin-2-yl)amino)-N,N-dimethylbenzamide] | < 1 | – | < 50 | –
23 | NC(=O)c1ccc(Oc2nc(-c3cnc(N)s3)nc(N3CCOCC3)n2)cc1 [Compound 10201, 4-((4-(2-aminothiazol-5-yl)-6-morpholino-1,3,5-triazin-2-yl)oxy)benzamide] | < 1 | – | < 50 | –
24 | C[C@H]1COCCN1c1nc(O[C@H]2CC[C@H](C(=O)N(C)C)CC2)nc(-c2ccc3[nH]ncc3c2)n1 [Compound 10202, (1S,4r)-4-((4-(1H-indazol-5-yl)-6-((S)-3-methylmorpholino)-1,3,5-triazin-2-yl)oxy)-N,N-dimethylcyclohexane-1-carboxamide] | > 10 | > 1 | – | –
25 | C[C@H]1COCCN1c1nc(O[C@H]2CC[C@H](C(=O)N(C)C)CC2)nc(-c2ccc(CO)cc2)n1 [Compound 10203, (1S,4r)-4-((4-(4-(hydroxymethyl)phenyl)-6-((S)-3-methylmorpholino)-1,3,5-triazin-2-yl)oxy)-N,N-dimethylcyclohexane-1-carboxamide] | – | > 3 | – | < 50
26 | C[C@H]1COCCN1c1nc(Oc2ccc(C(=O)N(C)C)cc2F)nc(-c2cnc(N)nc2)n1 [Compound 10204, (S)-4-((4-(2-aminopyrimidin-5-yl)-6-(3-methylmorpholino)-1,3,5-triazin-2-yl)oxy)-3-fluoro-N,N-dimethylbenzamide] | < 1 | < 1 | – | –
